The values below come from patent US20160083391A1, “TRICYCLIC PIPERAZINE DERIVATIVE” (Sunovion Pharmaceuticals Inc., priority 2014, published 2016).

This assay concerns PDE1. Description: In vitro HTRF PDE1 inhibition assay. Type of assay: biochemical. The note with it: HTRF cGMP assay, 100 nM cyclic GMP, PDE (1A3, 1B or 1C) with calmodulin, 45 minutes at 37° C.; isoform of the tabulated values not stated. In outline:
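HTRF cGMP competition assay: PDE1A3, 1B or 1C with calmodulin acting on 100 nM cGMP in 1% DMSO, pH 7.4 buffer with Ca2+ and Mg2+, 45 min at 37 °C. Remaining cGMP detected with d2-cGMP and anti-cGMP cryptate (665/615 nm); IC50 reported as banded categories.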
(In general: TR-FRET usually uses a lanthanide donor and a delayed reading to cut background.)
`O=c1c2cnc(C3CCCC3)n2nc2n1CCN(c1ccncc1)C2` [Compound I-185, 3-Cyclopentyl-7-(pyridin-4-yl)-8,9-dihydro-6H-imidazo[5,1-f]pyrazino[2,1-c][1,2,4]triazin-11(7H)-one] returned a half-inhibitory concentration (IC50) of 1 to 10 µM.

As to `CN1CCn2c(nc3c(cnn3-c3ccccc3)c2=O)C1Cc1ccccc1` (racemic) [Compound I-26, (±)-9-Benzyl-8-methyl-1-phenyl-6,7,8,9-tetrahydropyrazino[1,2-a]pyrazolo[3,4-d]pyrimidin-4(1H)-one], the IC50 was > 10 µM. Regarding `CC(C)c1n[nH]c2c(=O)n3c(nc12)C(C)N(Cc1ccccc1)CC3` (racemic) [Compound I-44, (±)-6-Benzyl-3-isopropyl-5-methyl-5,6,7,8-tetrahydropyrazino[1,2-a]pyrazolo[4,3-d]pyrimidin-10(1H)-one], the IC50 was > 10 µM. Consider `CCCn1ncc2c(=O)n3c(nc21)CN(Cc1ccc(OC)cc1)CC3` [Compound I-164, 8-(4-Methoxybenzyl)-1-propyl-6,7,8,9-tetrahydropyrazino[1,2-a]pyrazolo[3,4-d]pyrimidin-4(1H)-one], for which the IC50 fell in the range of 1 to 10 µM. Take `CC(C)n1ncc2c(=O)n3c(nc21)CN(Cc1cccc(Cl)c1)CC3` [Compound I-70, 8-(3-Chlorobenzyl)-1-isopropyl-6,7,8,9-tetrahydropyrazino[1,2-a]pyrazolo[3,4-d]pyrimidin-4(1H)-one]: the IC50 is < 1 µM. The figure for `CC(C)n1ncc2c(=O)n3c(nc21)CN(Cc1ccccc1)CC3` [Compound I-29, 8-Benzyl-1-isopropyl-6,7,8,9-tetrahydropyrazino[1,2-a]pyrazolo[3,4-d]pyrimidin-4(1H)-one] is 1 to 10 µM. Consider `COc1ccc(CN2CCn3c(nc4c(C5CCCC5)noc4c3=O)C2)cc1` [Compound I-129, 3-Cyclopentyl-6-(4-methoxybenzyl)-7,8-dihydro-5H-isoxazolo[4,5-d]pyrazino[1,2-a]pyrimidin-10(6H)-one], for which the IC50 lay within 1 to 10 µM. For `O=c1c2cnc(C3CCCC3)n2nc2n1CCN(c1ccc(Cl)cc1)C2` [Compound I-182, 7-(4-Chlorophenyl)-3-cyclopentyl-8,9-dihydro-6H-imidazo[5,1-f]pyrazino[2,1-c][1,2,4]triazin-11(7H)-one] the value was < 1 µM.

Molecule `Cc1cnc(CN2CCn3c(nn4c(C(C)C)ncc4c3=O)C2)nc1` [Compound I-200] had an IC50 of 1 to 10 µM. In the case of `CCCn1ncc2c(=O)n3c(nc21)CN(c1ccc(Cl)c(Cl)c1)CC3` [Compound I-168, 8-(3,4-Dichlorophenyl)-1-propyl-6,7,8,9-tetrahydropyrazino[1,2-a]pyrazolo[3,4-d]pyrimidin-4(1H)-one], the IC50 was 1 to 10 µM. The figure for `O=c1c2cnc(C3CCNCC3)n2nc2n1CCN(c1ccc(Cl)cc1)C2` [Compound I-252, 7-(4-Chlorophenyl)-3-(piperidin-4-yl)-8,9-dihydro-6H-imidazo[5,1-f]pyrazino[2,1-c][1,2,4]triazin-11(7H)-one] is 1 to 10 µM; for `CC(C)n1ncc2c(=O)n3c(nc21)CN(Cc1ccccc1-c1ccccc1)CC3` [Compound I-64, 8-([1,1′-Biphenyl]-2-ylmethyl)-1-isopropyl-6,7,8,9-tetrahydropyrazino[1,2-a]pyrazolo[3,4-d]pyrimidin-4(1H)-one] it is 1 to 10 µM. The figure for `CC1NCCn2c1nc1c(cnn1C)c2=O` (racemic) [Compound I-3, (±)-1,9-Dimethyl-6,7,8,9-tetrahydropyrazino[1,2-a]pyrazolo[3,4-d]pyrimidin-4(1H)-one] is > 10 µM; for `CC(C)Cc1nnc2c(=O)n3c(nn12)CN(CCc1ccccc1)CC3` [Compound I-227, 3-Isobutyl-7-phenethyl-8,9-dihydro-6H-pyrazino[2,1-c][1,2,4]triazolo[3,4-f][1,2,4]triazin-11(7H)-one] it is 1 to 10 µM; for `COc1ccc(CN2CCn3c(nn4c(C5CCCC5)nnc4c3=O)C2)cc1` [Compound I-131, 3-Cyclopentyl-7-(4-methoxybenzyl)-8,9-dihydro-6H-pyrazino[2,1-c][1,2,4]triazolo[3,4-f][1,2,4]triazin-11(7H)-one] it is < 1 µM.

Molecule `O=c1c2cnn(C3CCCC3)c2nc2n1CCN(Cc1cncnc1)C2` [Compound I-191, 1-Cyclopentyl-8-(pyrimidin-5-ylmethyl)-6,7,8,9-tetrahydropyrazino[1,2-a]pyrazolo[3,4-d]pyrimidin-4(1H)-one] had a 50% inhibitory concentration (IC50) of 1 to 10 µM.

On to `CC(C)n1ncc2c(=O)n3c(nc21)CN(Cc1cnccn1)CC3` [Compound I-202, 1-Isopropyl-8-(pyrazin-2-ylmethyl)-6,7,8,9-tetrahydropyrazino[1,2-a]pyrazolo[3,4-d]pyrimidin-4(1H)-one], for which the IC50 was 1 to 10 µM. For `CC(C)c1n[nH]c2c(=O)n3c(nc12)C(C)NCC3` (racemic) [Compound I-11, (±)-3-Isopropyl-5-methyl-5,6,7,8-tetrahydropyrazino[1,2-a]pyrazolo[4,3-d]pyrimidin-10(1H)-one] the value was > 10 µM; for `CC(C)n1ncc2c(=O)n3c(nc21)CN(C)C(c1ccccc1)C3` (racemic) [Compound I-107, (±)-1-Isopropyl-8-methyl-7-phenyl-6,7,8,9-tetrahydropyrazino[1,2-a]pyrazolo[3,4-d]pyrimidin-4(1H)-one], > 10 µM; for `CC(C)c1nnc2c(=O)n3c(nn12)CN(Cc1ccc(Cl)cc1)CC3` [Compound I-221, 7-(4-Chlorobenzyl)-3-isopropyl-8,9-dihydro-6H-pyrazino[2,1-c][1,2,4]triazolo[3,4-f][1,2,4]triazin-11(7H)-one], 1 to 10 µM. The figure for `Cc1ncc(CN2CCn3c(nn4c(C(C)C)ncc4c3=O)C2)cn1` [Compound I-196, 3-Isopropyl-7-((2-methylpyrimidin-5-yl)methyl)-8,9-dihydro-6H-imidazo[5,1-f]pyrazino[2,1-c][1,2,4]triazin-11(7H)-one] is 1 to 10 µM; for `CC1Cn2c(nc3c(cnn3C(C)C)c2=O)CN1C` (racemic) [Compound I-104, (±)-1-Isopropyl-7,8-dimethyl-6,7,8,9-tetrahydropyrazino[1,2-a]pyrazolo[3,4-d]pyrimidin-4(1H)-one] it is > 10 µM. The figure for `CC(C)n1ncc2c(=O)n3c(nc21)CN(Cc1ccc(Cl)cc1)CC3` [Compound I-73, 8-(4-Chlorobenzyl)-1-isopropyl-6,7,8,9-tetrahydropyrazino[1,2-a]pyrazolo[3,4-d]pyrimidin-4(1H)-one] is < 1 µM. `CC(C)c1ncc2c(=O)n3c(nn12)CN(c1ccc(C#N)cc1)CC3` [Compound I-238, 4-(3-Isopropyl-11-oxo-8,9-dihydro-6H-imidazo[5,1-f]pyrazino[2,1-c][1,2,4]triazin-7(11H)-yl)benzonitrile]: the IC50 is < 1 µM. `O=c1c2cnn(C3CCCC3)c2nc2n1CCN(Cc1ccc(Cl)cc1)C2` [Compound I-75, 8-(4-Chlorobenzyl)-1-cyclopentyl-6,7,8,9-tetrahydropyrazino[1,2-a]pyrazolo[3,4-d]pyrimidin-4(1H)-one]: the IC50 was < 1 µM.

In turn, `CC(C)c1nnc2c(=O)n3c(nn12)CN(CCc1ccccc1)CC3` [Compound I-225, 3-Isopropyl-7-phenethyl-8,9-dihydro-6H-pyrazino[2,1-c][1,2,4]triazolo[3,4-f][1,2,4]triazin-11(7H)-one] had an IC50 of 1 to 10 µM.

What is called IC50 is the concentration at which inhibition is half-maximal.
